Patent US8581605B2 (priority 2006, dated 2013)

Assay type: biochemical
Conditions: pH 7.4

α-hemolysin [αHL]
single-channel conductance of the αHL channel: ~900 pS
